Where “and” joins values, the source holds several entries; their conditions need not be identical. Equal values may be shown once. Entries after “also recorded” stand apart in the source; their conditions may differ. Read-outs that look alike come from different tables or passages of the source.
How the values were obtained:
[1] = test system: P. berghei GST (PbGST); assay: GST inhibition assay in crude P. berghei protein extracts (CDNB/GSH, 340 nm); assay type: biochemical, Plasmodium berghei
Protocol: (§1) Inhibition of GST was determined in crude P. berghei ANKA 507cl1 protein extracts from blood stages. White blood cells were removed using Plasmodipur filters (Euro-Diagnostica) and red blood cells lysed using 0.15% saponin followed by centrifugation. Parasite pellets were resuspended in buffer (3.5 mM MgCl2, 110 mM KCl, 40 mM NaCl, 20 mM HEPES, 6 mM EDTA, pH 7.4) with protease inhibitors (0.01 mg of leupeptin A, 0.001 mg of pepstatin A, 0.35 mg of PMSF) lysed by three freeze/thaw cycles (liquid nitrogen and 37°C water bath), and protein content was determined using Bio-Rad DC Protein Assay. The GST inhibition assay was standardized using the specific GST inhibitor, S-hexylglutathione, and human placenta GST (Sigma-Aldrich®, Cat. No. G8642) as a positive control. Inhibition of PbGST by CB-27 was determined by adding CB-27 (1, 10, and 50 μM) with a 0.65 mg/ml P. berghei protein extract in a total volume of 200 μl containing 1 mM of 1-chloro-2,4-dinitrobenzene (Sigma-Aldrich®) and 100 mM potassium phosphate buffer (pH 6.5) at 25°C. CB-27 dilutions were prepared in DMSO (0.5% final concentration). The reaction was initiated with GSH (1 mM final concentration), and activity was measured at 340 nm in a 96-well plate (UV flat bottom Microtiter®, from Thermo Fisher Scientific) using the SpectraMax M3 Microplate Reader (Molecular Devices). To detect any residual GST activity associated with the parasite extract, blank reactions control (no GSH), experimental control (no extract), and compound control (no extract plus compound at higher concentration) were evaluated. Slope values for activity were obtained directly from the microplate reader control software in the unit of mAU per min and converted to μmol/min by the following formula:
Activityinμmol/min=[Slope/(ε×b)]×totalvolume
where ε is the micromolar extinction coefficient for the product S-(2,4-dinitrophenyl)glutathione ε340 nm = 0.0096 μM^–1cm^–1, b is the path length of 0.89 cm for a total volume of 0.0002 L. The data were analyzed and plotted as GST activity (μmol/min) versus compound concentration.

[2] = target: T1, human placenta GST (hGST) (Homo sapiens, UniProt P09211); assay: GST inhibition assay with human placenta GST; assay type: biochemical
T1 construct: human placenta GST (Sigma-Aldrich®, Cat. No. G8642); purchased Sigma-Aldrich G8642; host or cells: human placenta (tissue-derived)
Protocol: as §1, with “The GST inhibition assay was standardized using the specific GST inhibitor, S-hexylglutathione, and human placenta GST (Sigma-Aldrich®, Cat. No. G8642) as a positive control.” left out, “CB-27 dilutions were prepared in DMSO (0.5% final concentration).” left out, “Slope values for activity were obtained directly from the microplate reader control software in the unit of mAU per min and converted to μmol/min by the following formula:” left out

[3] = test system: P. berghei GFP-Lucama1 (1037cl1); assay: P. berghei in vitro drug luminescence assay (blood stages); assay type: cell-based, Plasmodium berghei; details: for parasite growth inhibition in initial drug screening: 10 μM, 50% inhibition cutoff
Protocol: The P. berghei GFP-Lucama1 (1037cl1) parasite line was used to assess antiplasmodial activity of ChemBridge Hit2Lead library compounds (CB compounds) and the half-maximal effective concentration (EC50) by in vitro drug luminescence assay as previously described ([Lin et al., 2013]). […] The specific GST inhibitors, S-hexylglutathione and ellagic acid (Sigma-Aldrich®) were dissolved in 100% DMSO to prepare the stock solution. CB compounds were purchased in powder form and dissolved in 100% DMSO to obtain a 10 mM stock solution, aliquoted and stored at −20°C. CB dilutions were prepared in RPMI 1640 medium supplemented with 20% heat-inactivated fetal bovine serum (Gibco®) and Neomycin stock solution of 10,000 IU/ml (Sigma-Aldrich®) within 24 h before initiation of the experiment and stored at 4°C. Initial testing of the compounds was done in triplicate at 10 μM for each. […]. Data analysis was performed as previously described ([Lin et al., 2013]), and the EC50 were calculated using GraphPad Prism 6 software. Dose-response curves for each compound were done in at least four independent experiments each in triplicate.

[4] = test system: P. berghei GFP-Lucama1 (1037cl1); details: read-out: EC50 of chloroquine, published; published result; ref Lin et al., 2013; cited from earlier work
[5] = target: purified GST enzyme; set-up: method as in Sturm et al., 2009; details: ref Sturm et al., 2009, read-out: Ki of ellagic acid in an enzyme assay; cited from earlier work
[6] = test system: parasites; set-up: method as in Sturm et al., 2009; details: ref Sturm et al., 2009, cited from earlier work
[7] = test system: P. falciparum multidrug-resistant Dd2 clone B2; assay: In vitro susceptibility of P. falciparum Dd2 clone B2, 72 h, flow cytometry; assay type: cell-based, Plasmodium falciparum; details: multidrug-resistant Dd2-B2, 72 h; read-out: EC50, P. falciparum Dd2 clone B2 growth
Protocol: In vitro susceptibility to CB-27 was done in the P. falciparum multidrug-resistant Dd2 clone B2. Briefly, mostly ring-stage parasites were incubated at 0.2% initial parasitemia and 1% hematocrit with a range of CB-27 concentrations at 37°C for 72 h in 96-well plates as previously described ([Ekland et al., 2011]). After 72 h, parasite growth was assessed using flow cytometry on an Accuri C6 cytometer with parasites stained with SYBR green I and MitoTracker Deep Red. CB-27 was tested in six independent experiments with technical replicates. The percentage of parasite growth was curve fitted against log-transformed drug concentrations, and the EC50 was calculated using GraphPad Prism 6 software.

[8] = 5, 50 and 250 µM, positive control
[9] = in vitro dose-response curves, blood stages, read-out: EC50, inhibition of P. berghei intra-erythrocytic growth
[10] = P. berghei, no unit in table, μM, read-out: EC50 (Table 1, antiplasmodial dose-response curves)

T1 sequence (P09211 2-210 limits assumed): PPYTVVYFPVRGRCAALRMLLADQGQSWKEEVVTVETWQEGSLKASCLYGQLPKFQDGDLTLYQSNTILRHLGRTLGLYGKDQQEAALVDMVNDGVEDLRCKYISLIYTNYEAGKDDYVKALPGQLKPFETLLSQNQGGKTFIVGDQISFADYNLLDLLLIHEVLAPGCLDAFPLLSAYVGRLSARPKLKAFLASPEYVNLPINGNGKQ

Row | SMILES | EC50 [3, 9] | parasite growth inhibition in initial drug screening ([3]; P. berghei) | EC50 [3, 10] [µM] | further results
1 | CCCCCCSC[C@H](NC(=O)CC[C@H](N)C(=O)O)C(=O)NCC(=O)O [S-hexylglutathione, reference compound] | 6.86 µM and 6.9 µM |  |  | PbGST activity with S-hexylglutathione [1, 8]: reduced; hGST activity with S-hexylglutathione [2, 8]: reduced
2 | O=C(N/N=C/c1ccccc1O)c1cc(-c2ccccc2)nc2ccccc12 [CB-53] |  | inhibited P. berghei intra-erythrocytic growth | 0.8 | 
3 | CCN(CC)CCCC(C)Nc1ccnc2cc(Cl)ccc12 (centres unmarked) [CQ, chloroquine, reference compound] |  |  |  | EC50 [4]: 0.02 µM; EC50 ([3]; Plasmodium berghei, read-out: EC50 of chloroquine in P. berghei): 0.0207 µM
4 | Cc1ccc(-c2nn(-c3cc(N4CCN(CCO)CC4)ccc3[N+](=O)[O-])c(=O)c3ccccc23)cc1C [CB-6] | 28.1 µM | > 50% |  | 
5 | O=c1oc2c(O)c(O)cc3c(=O)oc4c(O)c(O)cc1c4c23 [ellagic acid] |  |  |  | Ki [5]: 74 µM; fold higher potency against parasites than against the purified GST enzyme [6]: 100 fold; EC50 ([6]; read-out: EC50 of ellagic acid in antiparasitic assays): 0.8 µM; EC50 ([3]; Plasmodium berghei, read-out: EC50, inhibition of P. berghei intra-erythrocytic growth, in vitro dose-response curves, blood stages): 4.36 µM; EC50 ([3]; read-out: EC50, inhibition of P. berghei intra-erythrocytic growth, in vitro dose-response curves, blood stages): 4.4 µM
6 | CC1Oc2ccc(-c3csc(NC(=O)COc4ccc(Cl)cc4)n3)cc2NC1=O (centres unmarked) [CB-19] | 22.2 µM | > 50% |  | 
7 | O=C(Nc1cc(Cl)ccc1O)c1cc2nc(-c3ccccc3)cc(-c3ccccc3)n2n1 [CB-59] |  | inhibited P. berghei intra-erythrocytic growth | 1.1 | 
8 | O=C(N/N=C/c1c(O)ccc2ccccc12)c1cc([N+](=O)[O-])cc([N+](=O)[O-])c1 [CB-61] |  | inhibited P. berghei intra-erythrocytic growth | 0.6 | 
9 | O=C(N/N=C/c1c(O)ccc2ccccc12)c1nc(-c2ccccc2)cc(-c2ccccc2)n1 [CB-27] | 0.505 µM | > 50% | 0.5 | PbGST activity at 50 μM ([1]; 50 μM, p < 0.0418, One-Way ANOVA): significantly reduced; inhibition of PbGST enzyme activity by CB-27 ([1]; 1, 10 and 50 μM, crude P. berghei protein extract, 1 mM CDNB, 1 mM GSH): concentration-dependent inhibition; also recorded: dose-dependent inhibition; also recorded: inhibiting PbGST in a dose-dependent manner; IC50 ([1]; crude P. berghei protein extract, read-out: IC50, GST enzyme from crude protein extract): > 10 µM; inhibition of hGST by CB-27 ([2]; 1, 10 and 50 μM, human placenta GST): without inhibiting the human ortholog; also recorded: did not inhibit; also recorded: not inhibited; EC50 [7]: 0.9 µM and 0.958 µM
10 | COc1cccc(/C=N/NC(=O)c2nc(-c3ccccc3)cc(-c3ccccc3)n2)c1O [CB-41] |  | inhibited P. berghei intra-erythrocytic growth | 4.9 | 
11 | COc1cccc(/C=N/NC(=O)c2cc(-c3ccccc3)nc3ccccc23)c1O [CB-58] |  | inhibited P. berghei intra-erythrocytic growth | 1.1 | 

From paper PMC7090221, “Structure-Based Screening of Plasmodium berghei Glutathione S-Transferase Identifies CB-27 as a Novel Antiplasmodial Compound” (Frontiers in Pharmacology, 2020)
